Data taken from patent US9850522B2, “One-step rapid assay for the detection of inhibitors of enzymes” (priority 2013, dated 2017).
Marks after values point to notes of the source that are not given here.

Tests used:
[1] = biological target: acetylcholinesterase (Electrophorus electricus, UniProt O42275); assay: Colorimetric test ticket, acetylcholinesterase strip; type: biochemical; settings: 1 ppm; positive result, lack of blue color
[2] = biological target: T1, AChE from eel (Electrophorus electricus, UniProt O42275); assay: AChE test ticket, fluorescence (NMI substrate), reader hue ratio; type: biochemical
T1 construct: purchased Sigma-Aldrich
Protocol: N-methyl indoxyl (NMI) acetate (100 mg, Sigma-Aldrich) was dissolved in 100 mil, 100% USP ethyl alcohol (Sigma-Aldrich) for a final concentration of […]. Strips of porous matrix Surewick Sample Pad C248 (Millipore) were saturated with this NMI solution and dried at 45° C. for two hours. The strips were then removed from the oven and stored in a resealable plastic bag with desiccant.
AChE from eel (Sigma-Aldrich) was dissolved to a final concentration of 2.2 units/mL in a buffer containing 10 mM potassium phosphate, 5% sucrose and 0.5% BSA at pH=7.4 and passed through a 0.22 μm filter. Strips of Millipore GFCP20300 glass fiber were pretreated by soaking with a mixture of 2% sucrose and 2% Triton in 6.25 mM borate buffer and dried at 45° C. in an oven for 2 hours. These glass fiber strips were then saturated with the solution of AChE and dried for 2 hours at 45° C. The strips were then removed from the oven and stored in a resealable plastic bag with desiccant.
To an adhesive-coated plastic backing, card (G&L) cut to 3×27 cm, is attached the fluid transfer membrane (nitrocellulose membrane) at a distance of 10 mm from the card bottom edge. The enzyme sample pad is attached flush to the bottom edge of the backing card overlapping the nitrocellulose membrane strip. The substrate pad is then attached flush to the other edge of the backing card (top edge), overlapping the nitrocellulose membrane. The assembled cards are then cut into 6.75 mm wide×16 mm long test strips using an automated guillotine cutter.
A stock solution (1 mg/mL) of the carbamate pesticide, oxamyl (Supelco), was prepared in methanol, then serially diluted in purified water to a final concentration of 0.1 mg/L for use as a test sample. […]
All tickets were then allowed to run for 15 minutes, then were inserted into a reader comprised of low light color cameras, 400 nm UV LED and custom color analysis software (FIG. 6). The reader calculates a ratio of the hue measured in the test sample site at the substrate pad to the hue measured in the negative control site at the substrate pad. […]

T1 sequence (O42275 24-633): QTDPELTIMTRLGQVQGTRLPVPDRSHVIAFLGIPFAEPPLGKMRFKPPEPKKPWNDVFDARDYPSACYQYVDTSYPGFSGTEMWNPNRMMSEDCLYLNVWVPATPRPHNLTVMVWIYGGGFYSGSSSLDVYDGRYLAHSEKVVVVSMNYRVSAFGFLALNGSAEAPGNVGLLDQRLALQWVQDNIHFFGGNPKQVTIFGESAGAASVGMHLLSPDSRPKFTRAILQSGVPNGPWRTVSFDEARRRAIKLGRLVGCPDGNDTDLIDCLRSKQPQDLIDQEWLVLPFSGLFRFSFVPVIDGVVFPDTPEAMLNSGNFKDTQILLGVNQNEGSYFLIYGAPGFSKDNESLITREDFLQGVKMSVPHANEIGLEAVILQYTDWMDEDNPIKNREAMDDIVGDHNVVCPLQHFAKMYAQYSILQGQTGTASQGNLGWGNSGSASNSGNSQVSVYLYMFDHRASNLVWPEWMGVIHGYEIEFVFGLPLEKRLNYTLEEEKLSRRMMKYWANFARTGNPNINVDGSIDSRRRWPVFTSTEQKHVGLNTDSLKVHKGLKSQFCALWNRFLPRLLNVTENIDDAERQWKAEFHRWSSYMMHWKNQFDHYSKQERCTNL
Sequence of acetylcholinesterase (O42275 24-633): as above

CNC(=O)O/N=C(\SC)C(=O)N(C)C [Oxamyl, oxamyl]
Result of colorimetric test ticket (FIG. 14 C) [1]: inhibits acetylcholinesterase | Reactivity with AChE [2]: reacts strongly with AChE | Fluorescence hue ratio ([2]; tested with AChE, 0.1 mg/L in purified water, test sample well:control well, 15 minutes run): 2.82* | Result ([2]; tested with AChE, 0.1 mg/L, hue ratio cutoff of 1.25): Positive (a ratio greater than 1.25 is considered positive)
